Test [1] has as its target T1, elastase (derived from human leukocyte) (Homo sapiens, UniProt P08246).
T1 construct: elastase (derived from human leukocyte); from tissue; host or cells: human leukocyte
T1 sequence (P08246 30-267): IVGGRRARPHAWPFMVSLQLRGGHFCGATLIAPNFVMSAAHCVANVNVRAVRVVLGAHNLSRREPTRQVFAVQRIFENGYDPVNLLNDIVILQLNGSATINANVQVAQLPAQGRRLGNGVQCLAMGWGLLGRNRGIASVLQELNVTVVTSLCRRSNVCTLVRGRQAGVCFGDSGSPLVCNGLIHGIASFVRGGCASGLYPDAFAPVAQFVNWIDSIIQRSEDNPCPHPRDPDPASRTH
Description: Elastase activity measurement. To be noted: compared with arctigenin; 37° C., 2 hours, absorbance at 405 nm. The class given is biochemical. As to the method:
Into a 96-well plate were added 1 μL of each of the samples that was dissolved in DMSO, and 100 μL of elastase (derived from human leukocyte) adjusted to 10 μg/mL. Furthermore, to each of the wells was added to 50 μL of a substrate solution (Suc-(Ala)3-pNa) adjusted to 5 mM. A tris-HCL buffer (pH: 8.0) was used to adjust the final volume thereof to 200 μL. Under a condition at 37° C., the plate was heated for 2 hours. The absorbance of the sample at 405 nm was used as an index of the elastase activity, and the elastase inhibiting activity thereof was calculated in accordance with the following equation: The elastase inhibiting activity (%)=(the absorbance of each of the samples/the absorbance of the control)×100

In another test the test system is B16F10 melanoma cells. Put plainly: Melanin production inhibition test using B16. To be noted: 0.1% (w/v), 72 hours, compared with arctigenin, n=3. The class given is cell-based. The protocol: After 24 hours, the culture solution was removed. […] Furthermore, the cells were cultured for 72 hours.
The absorbance thereof was measured at 475 nm.

Test [2] has as its system Endothelin-1 (ET-1) production from human epidermal keratinocytes. Put plainly: Evaluation on production inhibition of endothelin-1 (ET-1) in UVB-irradiated keratinocytes (ELISA). The class given is cell-based. To be noted: UVB 80 mJ/cm^2, supernatant 48 hours after irradiation, relative to agent-free UVB control = 100. As to the method: Human epidermal keratinocytes were inoculated into 6-well plates to give an amount of 100000 cells per well, and then the cells were cultured for 3 days until the cells turned confluent. After it was verified that the cells turned confluent, their media were each substituted with PBS (−). The individual plates were irradiated with UVB at an irradiation intensity of 80 mJ/cm^2. After the irradiation with the UVB, DMEM in which arctigenin or each of the arctigenin derivatives was dissolved was added to one of the individual plates. After 48 hours from the irradiation, the supernatant (in the one plate) was collected, and the supernatant was centrifuged at 3000 rpm for 5 minutes. Furthermore, the supernatant therein was collected to prepare specimens for ELISA. As a control, a sample was used which was obtained by collecting a supernatant of an agent-free plate irradiated with UVB irradiation. A device used for measuring ET-1 was an Endthelin-1 Human EIA kit (manufactured by Assay Designs, Inc.). […] In each of FIGS. 1 to 3 and FIGS. 6 to 8, one of its vertical axes represents a relative value of each of the specimens when the ET-1 production amount of the control was regarded as 100. In each of FIGS. 1 to 3 and FIGS. 6 to 8, its graph line represents the respective cell survival rates (of the specimens) when the value of the control was regarded as 100%.
Background: An ELISA detects its analyte on a solid surface through an enzyme-linked reagent.

The test system of test [3] is tyrosinase (originating from mushroom). Description: Tyrosinase inhibiting activity measurement. The format is biochemical. Conditions: test concentration 0.01%, compared with arctigenin. As to the method: To each well of a 96-well plate were added 1 μL of a 1 w/w % of each of the samples (test concentration: 0.01%) that was dissolved in DMSO, 20 μL of a 400 U/mL of a tyrosinase solution (originating from mushroom), and 79 μL of distilled water. Thereto were added a reaction solution (0.1 mg/mL L-tyrosine solution (Wako Pure Chemical Industries, Ltd.)) and 100 μL of a 1.3-mM copper sulfate pentahydrate solution (Wako Pure Chemical Industries, Ltd.)/a 60-mM phosphate buffer (pH: 6.0). The resultant was incubated at 37° C. for one hour. Thereafter, the absorbance of the sample was measured at 640 nm. This was used as a measured value (testing sample measured value or control measured value). The tyrosinase inhibiting activity (%)=(the absorbance of each of the samples/the absorbance of the control)×100

With `COc1ccc(C[C@H]2COC(=O)[C@@H]2Cc2ccc(OC(C)=O)c(OC)c2)cc1OC` [Example 1, Acetoxyarctigenin], in test [1], the elastase inhibiting capability result was “far stronger elastase inhibiting capability than arctigenin”.

Regarding Arctigenin Propionate [Example 2], the elastase inhibiting capability entry in test [1] is on record as “far stronger elastase inhibiting capability than arctigenin”. Besides, in the test with B16F10 melanoma cells, the “inhibition of the production of melanin per living cell” value was “more significantly inhibited the production of melanin per living cell than arctigenin”.

For the compound “Palmitate Arctigenin [Comparative Example 1]”, the “inhibition of the production of ET-1” value in test [2] is listed as “does not significantly inhibit the production of ET-1”. Moreover, the tyrosinase inhibiting capability entry in test [3] is on record as “no tyrosinase inhibiting capability”.
